Test results: PubChem BioAssay AID2060326 (Molecular Pharmacology Branch, DTP, NCI, 2025)
Values joined by “and” are separate entries in the source; they are usually repeats but may differ in a detail not shown here. Equal entries are not always repeated.

System: MDA-MB-468 multi-cell spheroids, viability
Assay: Anticancer human tumor MDA-MB-468 cell line growth inhibition [IpAb];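 also: spheroids exposed to agents for seven days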;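 as to viability, T/C: 100% = DMSO vehicle control viability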
Settings: for viability, T/C: stronger effect = lower value
Excerpt: Combinatorial screen of targeted agents with ipatasertib and abemaciclib in multi-cell type tumor spheroids
A high-throughput screen of multi-cell type tumor spheroids was designed to identify active combinations of targeted small molecules and ipatasertib or abemaciclib. Complex spheroids include a stromal component modeled by human endothelial cells (HUVEC) and fibroblasts modeled by human mesenchymal stem cells (MSCs). The concentration ranges selected for each drug and investigational agent were based upon clinically achievable concentrations if the clinical Cmax of the agent was known.
Compounds. The drugs and investigational agents: ipatasertib (NSC767898), abemaciclib(NSC768073), selumetinib (NSC741078), trametinib (758246), adavosertib (NSC754352), everolimus (NSC733504), sapanisertib (NSC764658), vemurafenib (NSC761431), venetoclax (NSC766270), copanlisib (NSC809693), apelisib (NSC765974), palbociblib (NSC758247), vemurafenib (NSC761431), dabrafenib (NSC764134), ravoxertinib (NSC781343), BMS-387032 (NSC767048), sotorasib (NSC818433), talazoparib (NSC767125) and afursertib (NSC778305), were obtained from the National Cancer Institute (NCI) Developmental Therapeutics Program Chemical Repository. The FDA-approved anticancer drug set is available from the NCI Developmental Therapeutics Program. […] The stock solutions were prepared in dimethyl sulfoxide (DMSO, Sigma-Aldrich, St. Louis, MO, cat. D2650) at 800-fold the tested concentration and stored at -70 degrees C prior to their use. All drugs and investigational agents were tested over a range starting from a high concentration at or near the clinical Cmax and decreasing in half-log increments. If the clinical Cmax for an agent had not been determined, the highest concentration tested was 10 microM.
NCI60 Cell Culture. NCI60 cell lines were obtained from the NCI Developmental Therapeutics Program Tumor Repository. For each lot of cells, the Repository performed Applied Biosystems AmpFLSTR Identifiler testing with PCR amplification to confirm consistency with the published Identifier STR profile for each cell line. Cells were kept in continuous culture for no more than 20 passages. The optimal seeding densities for each of the cell lines at each time point assessed were determined prior to performing the concentration response studies. Briefly, the NCI60 human tumor lines were grown as monolayers in RPMI 1640 medium supplemented with 10% FBS and 2 mmol/L L-glutamine.
An additional 9 lines were from the NCI60 cell line panel including MDA-MB-231 breast carcinoma, MDA-MB-468 breast carcinoma, MCF7 breast carcinoma, Hs578T breast carcinoma, MALME-3M melanoma, SK-MEL-2 melanoma, SK-OV-3 ovarian carcinoma, DU-145 prostate carcinoma, PC-3 prostate carcinoma, all cell lines along with major genetic alterations are listed on Table 2. Pooled donor human umbilical vein endothelial cells (HUVEC, Lonza, cat. CC-2519) and human mesenchymal stem cells (hMSC, Lonza, cat. PT-2501) were purchased from Lonza (Walkersville, MD).
PDMR cell lines were grown in complete medium (DC medium): Dulbecco's modified Eagle's medium (DMEM)/F12 supplemented with 5% fetal bovine serum (FBS), 2 mM L-glutamine, 100 U/mL penicillin and 100 µg/ml streptomycin, 0.4 µg/ml hydrocortisone, 10 ng/ml epidermal growth factor (EGF) recombinant human protein, 24 µg/mL adenine, and 0.1 mg/mL primocin. During culture from frozen stock vials, PDMR cells were cultured in the same medium containing 10 µM Y-27632 (see Table 3). The PDCs were cultured in complete DMEM/F12 media without 10 microM Y-27632 dihydrochloride for at least two passages prior to the screen. The pooled donor HUVEC and hMSC were cultured in endothelial cell growth medium 2 (PromoCell, Heidelberg, Germany, cat. C-22011) and mesenchymal stem cell growth medium 2 (PromoCell, cat. C-28009), respectively. For all experiments, HUVEC and hMSC were used at passages </=5.
[…]

For Cc1nc(NC(=O)N2CCCC2C(N)=O)sc1-c1ccnc(C(C)(C)C(F)(F)F)c1 (stereo not given), which viability, T/C (compound 0.0316 µM) is on record?
The viability, T/C was 86.9% and 91.9%.

And the viability, T/C (compound 0.1 µM)?
The viability, T/C was 93% and 82.5%.

What about the viability, T/C (compound 0.316 µM) of the same compound?
Its viability, T/C is 79.2% and 88.1%.

What about the viability, T/C (compound 1 µM) of the same compound?
The viability, T/C was 64.3% and 95%.

What about the viability, T/C (compound 3.16 µM) of the same compound?
The viability, T/C was 84% and 94.3%.

What about the viability, T/C (compound 10 µM) of the same compound?
Its viability, T/C is 25.2% and 31.6%.

And the IC50 (curve of compound)?
Its IC50 is 6020 nM and 6990 nM.

How did the viability, T/C (compound 0.00949 µM) turn out when Cn1cnc2c(F)c(Nc3ccc(Br)cc3Cl)c(C(=O)NOCCO)cc21 was run?
The viability, T/C was 87.3% and 84.9%.

What about the viability, T/C (compound 0.03 µM) of the same compound?
The viability, T/C was 92.3% and 85%.

And the viability, T/C (compound 0.0949 µM)?
The viability, T/C was 65.1% and 77.8%.

And the viability, T/C (compound 0.3 µM)?
Its viability, T/C is 72% and 68.5%.

What about the viability, T/C (compound 0.949 µM) of the same compound?
The viability, T/C was 59.6% and 59.1%.

And the viability, T/C (compound 3 µM)?
Its viability, T/C is 39.2% and 26.2%.

What about the IC50 (curve of compound) of the same compound?
Its IC50 is 1560 nM and 1200 nM.

With Cn1ncc(Cl)c1-c1cc(C(=O)NC(CN)Cc2cccc(F)c2)sc1Cl (stereo not given) as the compound, how does the viability, T/C (compound 0.0316 µM) read?
The viability, T/C was 82.3% and 88.3%.

And the viability, T/C (compound 0.1 µM)?
The viability, T/C was 61.5% and 72.7%.

What about the viability, T/C (compound 0.316 µM) of the same compound?
The viability, T/C was 55.5% and 61.2%.

And the viability, T/C (compound 1 µM)?
Its viability, T/C is 32.6% and 32.4%.

What about the viability, T/C (compound 3.16 µM) of the same compound?
Its viability, T/C is 15.9% and 11.8%.

And the viability, T/C (compound 10 µM)?
The viability, T/C was 0.22% and 0.21%.

What about the IC50 (curve of compound) of the same compound?
Its IC50 is 330 nM and 460 nM.

How did the viability, T/C (compound 0.0316 µM) turn out when Cn1nccc1Nc1nccc(-c2ccn(C(CO)c3ccc(Cl)c(F)c3)c(=O)c2)n1 (stereo not given) was run?
The viability, T/C was 84.7% and 94.8%.

What about the viability, T/C (compound 0.1 µM) of the same compound?
The viability, T/C was 91.9% and 98.6%.

And the viability, T/C (compound 0.316 µM)?
Its viability, T/C is 100% and 83.9%.

And the viability, T/C (compound 1 µM)?
The viability, T/C was 84.2% and 81.8%.

What about the viability, T/C (compound 3.16 µM) of the same compound?
Its viability, T/C is 68.4% and 64.4%.

And the viability, T/C (compound 10 µM)?
The viability, T/C was 5.12% and 13.2%.

And the IC50 (curve of compound)?
The IC50 was 4400 nM and 4230 nM.

Which results are given for Cn1ncnc1[C@H]1c2n[nH]c(=O)c3cc(F)cc(c23)N[C@@H]1c1ccc(F)cc1?
viability, T/C (compound 0.000316 µM): 121% and 90.6%; viability, T/C (compound 0.001 µM): 105% and 98.7%; viability, T/C (compound 0.00316 µM): 113% and 81%; viability, T/C (compound 0.01 µM): 103% and 93.2%; viability, T/C (compound 0.0316 µM): 84.2% and 83.9%; viability, T/C (compound 0.1 µM): 68.8% and 65.7%; IC50 (curve of compound): > 100 nM

Which results are given for Cn1cnc2c(F)c(Nc3ccc(Br)cc3Cl)c(C(=O)NOCCO)cc21 + CC(C)NCC(C(=O)N1CCN(c2ncnc3c2C(C)CC3O)CC1)c1ccc(Cl)cc1?
IC50 (curve of first compound, second compound 0.1 µM): 435 nM; IC50 (curve of first compound, second compound 0.316 µM): 54.8 nM; IC50 (curve of first compound, second compound 1 µM): < 9.49 nM; IC50 (curve of first compound, second compound 3.16 µM): < 9.49 nM; IC50 (curve of first compound, second compound 10 µM): < 9.49 nM; viability, T/C (second compound 0.1 µM, first compound 0.00949 µM): 72.6%; viability, T/C (second compound 0.1 µM, first compound 0.03 µM): 72.2%; viability, T/C (second compound 0.1 µM, first compound 0.0949 µM): 63.4%; viability, T/C (second compound 0.1 µM, first compound 0.3 µM): 53.6%; viability, T/C (second compound 0.1 µM, first compound 0.949 µM): 41.2%; viability, T/C (second compound 0.1 µM, first compound 3 µM): 21.2%; viability, T/C (second compound 0.316 µM, first compound 0.00949 µM): 66.3%; viability, T/C (second compound 0.316 µM, first compound 0.03 µM): 49%; viability, T/C (second compound 0.316 µM, first compound 0.0949 µM): 46.7%; viability, T/C (second compound 0.316 µM, first compound 0.3 µM): 35%; viability, T/C (second compound 0.316 µM, first compound 0.949 µM): 28.8%; viability, T/C (second compound 0.316 µM, first compound 3 µM): 8.58%; viability, T/C (second compound 1 µM, first compound 0.00949 µM): 50.4%; viability, T/C (second compound 1 µM, first compound 0.03 µM): 38.7%; viability, T/C (second compound 1 µM, first compound 0.0949 µM): 41.4%; viability, T/C (second compound 1 µM, first compound 0.3 µM): 24.2%; viability, T/C (second compound 1 µM, first compound 0.949 µM): 16.6%; viability, T/C (second compound 1 µM, first compound 3 µM): 3.5%; viability, T/C (second compound 3.16 µM, first compound 0.00949 µM): 34.8%; viability, T/C (second compound 3.16 µM, first compound 0.03 µM): 28.4%; viability, T/C (second compound 3.16 µM, first compound 0.0949 µM): 22.2%; viability, T/C (second compound 3.16 µM, first compound 0.3 µM): 18%; viability, T/C (second compound 3.16 µM, first compound 0.949 µM): 5.62%; viability, T/C (second compound 3.16 µM, first compound 3 µM): 0.63%; viability, T/C (second compound 10 µM, first compound 0.00949 µM): 13.7%; viability, T/C (second compound 10 µM, first compound 0.03 µM): 13.5%; viability, T/C (second compound 10 µM, first compound 0.0949 µM): 7.27%; viability, T/C (second compound 10 µM, first compound 0.3 µM): 3.11%; viability, T/C (second compound 10 µM, first compound 0.949 µM): 0.84%; viability, T/C (second compound 10 µM, first compound 3 µM): 0.43%
